test system: tau paired-helical filaments (PHFs); experiment: Cryo-EM co-structure with Alzheimer's disease tau paired helical filaments; type: binding, human; settings: AD tau PHF incubated with 20 uM GTP-1, cryo-EM
Experimental: Samples were incubated with 20 uM GTP-1 prior to vitrification. […] The micrograph images and their 2D classification reveal well-resolved filaments primarily in the PHF conformation, with crossover distances ranging from 700-800 Å. A minor population of straight filaments (SF) was also identified; however, further structural characterization was not feasible due to limited abundance. […] The PHF structure is comprised of two protofilaments related by two-fold symmetry with a 2.37 Å rise and 179.450 twist, consistent with previously reported structures of PHFs prepared from AD brains (13, 15). […]
Cryo-EM sample preparation and data collection. […] For the tau PHF, 3 μL of purified filaments mixed with GTP-1 was added to a glow-discharged 200 mesh 1.2/1.3R Au Quantifoil grid for 10 seconds before blotting for 2 seconds, and then a second 3 μL aliquot was added for 3 seconds and blotted for 1 second before being plunge frozen in liquid ethane using a FEI Vitrobot Mark IV (Thermo Fisher Scientific). For the synuclein ligands, 3 μL of purified filaments mixed with compound was added to a 200 mesh 1.2/1.3R Au Quantifoil grid coated with a 2 nm thick layer of carbon, which had not been glow discharged. […]

Compound	binding site on tau filament
[2H]C([2H])([18F])CC1CCN(c2ccn3c(n2)nc2ccccc23)CC1 [GTP-1]	bound to a solvent exposed cleft (residues 351-360)

target: T1, α-synuclein fibrils isolated from an MSA patient sample (Homo sapiens, UniProt P37840); experiment: Cryo-EM co-structure with α-synuclein fibrils from MSA patient samples; type: binding; settings: fibrils from MSA patient sample, cryoelectronic microscopy
T1 construct: fresh-frozen tissue from the cerebellum of patients clinically and neuropathologically diagnosed with MSA; from tissue; host or cells: cerebellum of MSA patients (sarkosyl-insoluble fraction)
Experimental: MSA filament purification. Filament purification was based on Schweigenhauser et al., 2020^2. Briefly, 1-2 g of fresh-frozen tissue from the cerebellum of patients clinically and neuropathologically diagnosed with MSA was homogenized at 20 mL/g of tissue in 10 mM Tris-HCl (pH 7.4), 800 mM NaCl, 1 mM EGTA, and 10% sucrose. A final concentration of 1% N-laurosarcosinate (w/v) was added to the homogenates, and these mixtures were incubated at 37° C. for 30 minutes. Homogenates were then centrifuged at 10,000 g for 10 minutes, and the supernatant was kept and then centrifuged at 100,000 g for 20 minutes. The pellets were resuspended at 500 μL/g of frozen tissue in 10 mM Tris-HCl (pH 7.4), 800 mM NaCl, 1 mM EGTA, and 10% sucrose. This was followed by another centrifugation at 3,000 g for 5 minutes. The supernatant was kept and diluted threefold with 50 mM Tris-HCl (pH 7.4), 150 mM NaCl, 10% sucrose, and 2% sarkosyl, followed by another centrifugation at 150,000 g for 1 hour. The final pellet resuspended in 30 mM Tris-HCl (pH 7.4) at a concentration of […] frozen tissue.
Cryo-EM sample preparation and data collection. Purified frontal cortex and cerebellum tissue was incubated with 20 μM ligand for 45 minutes prior to freezing. For the tau PHF, 3 μL of purified filaments mixed with GTP-1 was added to a glow-discharged 200 mesh 1.2/1.3R Au Quantifoil grid for 10 seconds before blotting for 2 seconds, and then a second 3 μL aliquot was added for 3 seconds and blotted for 1 second before being plunge frozen in liquid ethane using a FEI Vitrobot Mark IV (Thermo Fisher Scientific). For the synuclein ligands, 3 μL of purified filaments mixed with compound was added to a 200 mesh 1.2/1.3R Au Quantifoil grid coated with a 2 nm thick layer of carbon, which had not been glow discharged. After 30 seconds, grids were blotted for 7.5 seconds at room temperature and 100% humidity. Grids were plunge frozen in liquid ethane using a FEI Vitrobot Mark IV. […] A defocus range of 0.8 to 1.8 μm was used with a total exposure time of 2.024 seconds fractionated into 0.025 seconds subframes. The total dose for each movie was 46 electrons/Å^2. Movies were motion-corrected using MotionCor2^3 in Scipion^4 and were Fourier cropped by a factor of 2 to a final pixel size of 0.834 Å per pixel.
Image processing. All image processing was done in RELION 4^5, and the same workflow was used for each dataset. Dose-weighted summed micrographs were imported into RELION 4. The contrast transfer function was estimated using CTFFIND-4.1^6. Filaments were manually picked and then segments were extracted with a box size of 900 pixels downscaled to 300 pixels. Contaminants and segments contributing to straight filaments were separated out using reference-free 2D class averaging. The remaining segments were re-extracted with a box size of 288 pixels without downscaling. An initial model was generated from a cylinder in RELION. One or more rounds of 3D classification with image alignment were performed, with helical rise and […] parameters fixed to eliminate obvious junk particles. One or more rounds of 3D auto-refinement was run using the best map from 3D classification low-pass filtered to 10 Å, allowing rise and twist parameters to vary. Maps were sharpened using the standard post-processing procedures in RELION.
Model building, refinement, and analysis. Prior to ligand placement, a single strand of a previously solved MSA or tau PHF filament stutr^2 (PDB: 6XYQ) was refined against the density using Phenix^7. Refinement of the ligand binding pocket was done in COOT^8. Ligands were placed by hand in the density using Chimera^9. This model was then translated to give a stack spanning 5 rungs.

Compound	co-structure of supramolecular polymeric inhibitor with α-synuclein fibrils
CNC(=O)c1ncc2c(-c3ccnc(C(C)(F)F)n3)nn(-c3ccc(Cl)cc3)c2n1 [Compound 22, 1-(4-chlorophenyl)-3-(2-(1,1-difluoroethyl)pyrimidin-4-yl)-N-methyl-1H-pyrazolo[3,4-d]pyrimidine-6-carboxamide]	bound to fibrils isolated from an MSA patient sample
CNc1nc(=O)n(-c2nc(-c3cccc(C)c3)oc2-c2ccc(Cl)c(F)c2)cc1F [Compound 83, 1-(5-(4-chloro-3-fluorophenyl)-2-(m-tolyl)oxazol-4-yl)-5-fluoro-4-(methylamino)pyrimidin-2 (1H)-one]	bound to fibrils isolated from an MSA patient sample
CNc1nc(=O)n(-c2nc(-c3cccc(Cl)c3)oc2-c2ccc(Cl)c(F)c2)cc1F [Compound 125, 1-(5-(4-chloro-3-fluorophenyl)-2-(3-chlorophenyl)oxazol-4-yl)-5-fluoro-4-(methylamino)pyrimidin-2 (1H)-one]	bound to fibrils isolated from an MSA patient sample
O=C(Cn1cc(-c2ccoc2)c(=O)c2ccc(N3CCCC3)cc21)Nc1ccccc1C(F)(F)F [Compound 149, 2-[3-(furan-3-yl)-4-oxo-7-(pyrrolidin-1-yl)-1,4-dihydroquinolin-1-yl]-N-[2-(trifluoromethyl)phenyl]acetamide]	bound to fibrils isolated from an MSA patient sample
O=c1nc2c(ccn2C(F)(F)F)cn1-c1nc(-c2ccnc(C3CC3)n2)oc1-c1ccc(F)cc1 [compound 293]	bound to fibrils isolated from an MSA patient sample
CNc1nc(=O)n(-c2nc(-c3cc(C)cc(C)n3)oc2-c2ccc(F)c(F)c2)cc1F [compound 294]	bound to fibrils isolated from an MSA patient sample
Cc1nccc2cc(-c3nc(-n4ccc5cccnc5c4=O)c(-c4ccc(C(F)(F)F)cc4)o3)ccc12 [compound 427]	bound to fibrils isolated from an MSA patient sample

same assay, conditions: α-synuclein fibril from an MSA patient, SEQ ID NO: 9

Compound	binding site on α-synuclein fibril
CNC(=O)c1ncc2c(-c3ccnc(C(C)(F)F)n3)nn(-c3ccc(Cl)cc3)c2n1 [Compound 22, 1-(4-chlorophenyl)-3-(2-(1,1-difluoroethyl)pyrimidin-4-yl)-N-methyl-1H-pyrazolo[3,4-d]pyrimidine-6-carboxamide]	bound to residues 86-99

Source: patent publication US20240199604A1, “SUPRAMOLECULAR POLYMER THERAPEUTICS AND DIAGNOSTICS” (The Regents of the University of California, priority 2022, published 2024)
